{"source": "patent US12521358B2", "about": "“Method for selecting cancer patients for whom combination therapy with retinoid and cancer therapeutic agent is effective, and combination medicament with retinoid and cancer therapeutic agent” (RaQualia Pharma Inc., priority 2020, dated 2026)", "key": {"[1]": {"tested_on": "primary human pancreatic stellate cells", "experiment": "Meflin gene (ISLR) expression by qPCR after retinoid treatment (Example 4)", "assay_type": "cell-based", "conditions": "relative expression level, control (DMSO-treated cells) = 1, retinoid 1 μM, 48 hours", "procedure": "(§1) The primary human pancreatic stellate cells used are those provided by Dr. Masamune, Tohoku University. The primary mouse mesenchymal stem cells used are those purchased from Cyagen Co., Ltd. Both pancreatic stellate cells and mesenchymal stem cells are considered to be the origin of CAF. As the retinoid, the retinoid contained in SCREEN-WELL Nuclear Receptor ligand library (ENZO) is used. DMEM+10% FBS is used as a culture medium. The cells are seeded in a collagen-coated dish and cultured until they are 100% confluent, and various retinoids are added to a concentration of 1 μM. After 48 hours, cells are harvested, RNA is extracted using RNeasyPLUS KIT (QIAGEN), and cDNA is synthesized using ReverseTra Ace qPCR RT Master Mix (TOYOBO). The expression level of the meflin gene (ISLR and Islr) is measured by qPCR using the Gene expression assay (Thermo Fisher scientific)."}, "[2]": {"tested_on": "primary mouse mesenchymal stem cells", "experiment": "Meflin gene (Islr) expression by qPCR after retinoid treatment (Example 4)", "assay_type": "cell-based", "conditions": "relative expression level, control (DMSO-treated cells) = 1, retinoid 1 μM, 48 hours", "procedure": "as §1"}, "[3]": {"tested_on": "mouse pancreatic cancer cells mT5", "experiment": "AM80 alone in mice subcutaneously transplanted with mT5 (Example 6)", "assay_type": "in vivo", "text": "Pancreatic cancer cell mT5, which was distributed by Dr. David Tuveson, Cold Spring Harbor Laboratory, is used. mT5 is a pancreatic cancer cell established from a pancreatic tumor developed in KPC mice, which is a pancreatic cancer spontaneous onset model (Organoid models of human and mouse ductal pancreatic cancer. Cell. 2015 Jan. 15; 160 (1-2)): 324-38. Doi: 10.1016/j. cell. 2014.12.021. Epub 2014 Dec. 31.).\nC57BL/6J female mice are subcutaneously transplanted with mouse pancreatic cancer cells mT5 (1.0×10^6 cells). Eight days later (Day 8), AM80 is orally administered for 15 days to mice in which tumor formation was confirmed. Depending on the dose of AM80 (0.1 mg/kg/day, 0.5 mg/kg/day, 1 mg/kg/day and 3 mg/kg/day), a total of 5 groups, namely, four AM80 administration groups and a control group (DMSO administration) are set up (n=5 in each group). Body weight and tumor volume are measured before the start of the AM80 administration (Day 8), Day 11, Day 15, Day 18 and Day 22. On Day 22, mice are euthanized, tumors are removed to prepare tissue specimens, the in situ hybridization (ISH) is performed to detect the expression of the meflin gene (Islr) and the actin gene (Acta2), and then the number of positive signals is counted for each. Furthermore, a tissue specimen of the tumor is prepared, immunostaining is performed with an anti-CD31 antibody to stain CD31, which is a marker for vascular endothelial cells, and the vascular lumen area is measured."}, "[4]": {"tested_on": "primary mouse mesenchymal stem cells", "experiment": "Islr, Acta2, Col1a1 and Col3a1 expression by qPCR after retinoid treatment (Example 5)", "assay_type": "cell-based", "conditions": "vs control (DMSO), 48 hours after addition; for expression level of meflin gene (Islr): FIG. 27(A); for expression level of actin gene (Acta2): FIG. 27(B); for expression level of type I collagen gene (Col1a1): FIG. 27(C); for expression level of type III collagen gene (Col3a1): FIG. 27(D)", "procedure": "as §1\nThe same method is performed as in the experiment using the primary mouse mesenchymal stem cells in Example 4. ATRA, AM80 and AM580 are used as retinoids. The expression levels of the meflin gene (Islr), actin gene (Acta2), type I collagen gene (Col1a1) and type III collagen gene (Col3a1) are measured by qPCR."}, "[5]": {"tested_on": "mouse pancreatic cancer cells mT5", "experiment": "Collagen arrangement in tumor stroma by second harmonic microscope (Example 16)", "assay_type": "in vivo", "conditions": "tamibarotene 3.0 mg/kg oral once a day for 7 days from Day 8; vs control (DMSO); Day 15", "procedure": "C57BL/6J female mice are subcutaneously transplanted with mouse pancreatic cancer cells mT5 (1.0×10^6 cells). Eight days later (Day 8), the mice are divided into two groups, a control group and a tamibarotene administration group (AM80 group) to ensure equal tumor volume (n=5 in each group). In the AM80 group, tamibarotene (3.0 mg/kg) is orally administered once a day for 7 days from Day 8. In the control group, DMSO is orally administered instead of tamibarotene. On Day 15, mice are euthanized, and tumors are removed to prepare tissue specimens. Eight to sixteen images are randomly selected from the tumor tissue specimen, the collagen arrangement is measured with a second harmonic microscope, and the curvature (linearity) is analyzed."}, "[6]": {"tested_on": "mouse pancreatic cancer cells mT5", "experiment": "Tamibarotene and gemcitabine in mice transplanted with mT5 (Example 7)", "assay_type": "in vivo", "conditions": "tamibarotene 3.0 mg/kg oral once a day for 17 days from Day 8; gemcitabine 50 mg/kg i.p. Day 15, 18, 21; to Day 24", "procedure": "C57BL/6J female mice are subcutaneously transplanted with mouse pancreatic cancer cells mT5 (1.0×10^6 cells). […] In the Gem+AM80 group, tamibarotene (3.0 mg/kg) is orally administered once a day for 17 days from Day 8. In addition, in the Gem group and the Gem+AM80 group, gemcitabine (50 mg/kg) is intraperitoneally administered once each on Day 15, Day 18 and Day 21. In the control group, DMSO is orally administered instead of tamibarotene, and saline is intraperitoneally administered instead of gemcitabine. Tumor volume is measured before start of the AM80 administration (Day 8), Day 12, Day 15, Day 18, Day 21 and Day 24."}, "[7]": {"conditions": "AM80 3 mg/kg/day vs control group, tumor removed Day 22"}}}
{"smiles": "CC1=C(/C=C/C(C)=C/C=C/C(C)=C/C(=O)O)C(C)(C)CCC1O", "note": "(stereo not shown) [4-Hydroxyretinoic acid, 4-hydroxyretinoic acid]", "values": [{"measurement": "ISLR expression level (mean value)", "setting": "[1]", "value": 3.264}, {"measurement": "ISLR expression level (mean value)", "setting": "[2]", "value": 1.912}]}
{"smiles": "CC1=C(/C=C/C(C)=C\\C=C\\C(C)=C\\C(=O)O)C(C)(C)CCC1", "note": "[9-cis Retinoic acid, 9-cis-retinoic acid]", "values": [{"measurement": "ISLR expression level (mean value)", "setting": "[1]", "value": 4.894}]}
{"smiles": "CC1=C(/C=C/C(C)=C/C=C/C(C)=C\\C(=O)O)C(C)(C)CCC1", "note": "[13-cis Retinoic, 13-cis-retinoic acid]", "values": [{"measurement": "ISLR expression level (mean value)", "setting": "[1]", "value": 7.252}]}
{"smiles": "CC1(C)CCC(C)(C)c2cc(NC(=O)c3ccc(C(=O)O)cc3)ccc21", "note": "[AM80, tamibarotene]", "values": [{"measurement": "number of dots of the Acta2 positive signal per high-magnification field (ISH)", "setting": "[3]; [7]", "value": "significantly lower"}, {"measurement": "number of dots of the Islr positive signal per high-magnification field (ISH)", "setting": "[3]; [7]", "value": "significantly higher"}, {"measurement": "vascular lumen area (anti-CD31 immunostaining)", "setting": "[3]; [7]", "value": "significantly higher"}, {"measurement": "tumor volume", "setting": "[3]; AM80 0.1, 0.5, 1 and 3 mg/kg/day oral for 15 days from Day 8, vs control (DMSO), Day 8-22", "value": "does not suppress the growth"}, {"measurement": "body weight", "setting": "[3]; AM80 0.1-3 mg/kg/day oral for 15 days", "value": "does not affect the body weight"}, {"measurement": "expression level of meflin gene (Islr)", "setting": "[4]", "value": "high"}, {"measurement": "expression level of actin gene (Acta2)", "setting": "[4]", "value": "low"}, {"measurement": "expression level of type I collagen gene (Col1a1)", "setting": "[4]", "value": "low"}, {"measurement": "expression level of type III collagen gene (Col3a1)", "setting": "[4]", "value": "low"}, {"measurement": "curvature (linearity) of collagen", "setting": "[5]", "value": "reducing the linearity of collagen"}]}
{"smiles": "CC1(C)CCC(C)(C)c2cc(C(=O)Nc3ccc(C(=O)O)cc3)ccc21", "note": "[AM580]", "values": [{"measurement": "ISLR expression level (mean value)", "setting": "[1]", "value": 3625.326}, {"measurement": "expression level of meflin gene (Islr)", "setting": "[4]", "value": "high"}, {"measurement": "expression level of actin gene (Acta2)", "setting": "[4]", "value": "low"}, {"measurement": "expression level of type I collagen gene (Col1a1)", "setting": "[4]", "value": "low"}, {"measurement": "expression level of type III collagen gene (Col3a1)", "setting": "[4]", "value": "low"}, {"measurement": "ISLR expression level (mean value)", "setting": "[2]", "value": 5.295}]}
{"smiles": "CC1=C(/C=C/C(C)=C/C=C/C(C)=C/C(=O)O)C(C)(C)CCC1", "note": "[ATRA, all-trans retinoic acid]", "values": [{"measurement": "ISLR expression level (mean value)", "setting": "[1]", "value": 217.5011}, {"measurement": "expression level of meflin gene (Islr)", "setting": "[4]", "value": "high"}, {"measurement": "expression level of actin gene (Acta2)", "setting": "[4]", "value": "low"}, {"measurement": "expression level of type I collagen gene (Col1a1)", "setting": "[4]", "value": "low"}, {"measurement": "expression level of type III collagen gene (Col3a1)", "setting": "[4]", "value": "low"}, {"measurement": "ISLR expression level (mean value)", "setting": "[2]", "value": 1.693}]}
{"smiles": "COc1cc(C)c(/C=C/C(C)=C/C=C/C(C)=C/C(=O)O)c(C)c1C", "note": "[Acitretin]", "values": [{"measurement": "ISLR expression level (mean value)", "setting": "[1]", "value": 47.59}, {"measurement": "ISLR expression level (mean value)", "setting": "[2]", "value": 7.659}]}
{"smiles": "COc1ccc(-c2ccc3cc(C(=O)O)ccc3c2)cc1C12CC3CC(CC(C3)C1)C2", "note": "[Adapalene, adapalene]", "values": [{"measurement": "ISLR expression level (mean value)", "setting": "[2]", "value": 5.428}]}
{"smiles": "CC(C)(c1ccc(OCC2CO2)cc1)c1ccc(OCC2CO2)cc1", "note": "(stereo not shown) [BADGE, bisphenol A diglycidyl ether]", "values": [{"measurement": "ISLR expression level (mean value)", "setting": "[1]", "value": 5089.576}]}
{"smiles": "Nc1ccn([C@@H]2O[C@H](CO)[C@@H](O)C2(F)F)c(=O)n1", "note": "[Gem, gemcitabine]", "values": [{"measurement": "tumor growth (tumor volume)", "setting": "[6]", "value": "more significantly suppresses the tumor growth than the control group"}]}
{"smiles": "CC(=O)OC/C=C(C)/C=C/C=C(C)/C=C/C1=C(C)CCCC1(C)C", "note": "[Retinyl acetate, retinyl acetate]", "values": [{"measurement": "ISLR expression level (mean value)", "setting": "[1]", "value": 3.29}]}
{"smiles": "C/C(=C\\c1ccc(C(=O)O)cc1)c1ccc2c(c1)C(C)(C)CCC2(C)C", "note": "[TTNPB]", "values": [{"measurement": "ISLR expression level (mean value)", "setting": "[1]", "value": 15.94}, {"measurement": "ISLR expression level (mean value)", "setting": "[2]", "value": 5.183}]}
